From ChEMBL document CHEMBL1201862, “PubChem BioAssay data set” (2004) come the findings set out here.

The structures appear in SMILES notation.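 Cultured in 96-well plates, cells were exposed to test compound for 48 hours across five concentrations. GI50 = concentration required for 50% inhibition of growth.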 Activity calls are given as the source filed them. No stated cut-off is given here; in the data, active = GI50 up to about 1.1 µM and inactive = higher.

Test systems include HCT-116; NCI/ADR-RES; SK-OV-3; HT-29; OVCAR-3; MOLT-4; CAKI-1; U-251; HL-60; OVCAR-8; SW-620; MDA-MB-231; RPMI-8226; UO-31; Malme-3M; NCI-H226; HCT-15; OVCAR-5; SF-295.
What all share (test): inhibition of tumour cell growth, NCI panel, 48 h

Regarding `C=CC(C)(C)c1c(OC)oc2ccc(OC)c(C)c2c1=O`, the GI50 in the experiment with HCT-116 was 89.7 µM (inactive); with NCI/ADR-RES it was 96.8 µM (inactive); in the experiment on SK-OV-3 it was > 100 µM (inactive); with HT-29, 96.4 µM (inactive); in the experiment with OVCAR-3, > 100 µM (inactive); in the experiment on MOLT-4, 49.5 µM (inactive). Also, the GI50 in the experiment with CAKI-1 was > 100 µM (inactive); in the experiment with U-251 it was > 100 µM (inactive); with HL-60, 70.6 µM (inactive); with OVCAR-8 it was > 100 µM (inactive); with SW-620 it was > 100 µM (inactive); with MDA-MB-231 it was > 100 µM (inactive). Further, the GI50 was > 100 µM (inactive) in the experiment on RPMI-8226; > 100 µM (inactive) in the experiment on UO-31; > 100 µM (inactive) in the experiment on Malme-3M; > 100 µM (inactive) with NCI-H226; 98.2 µM with HCT-15; > 100 µM (inactive) in the experiment with OVCAR-5. In addition, in the experiment on SF-295, the GI50 is > 100 µM (inactive).

For `O=C(O)c1cnccc1-c1cc(=O)[nH]n1-c1ccccc1`, the GI50 with HCT-116 is 51.8 µM (inactive); with NCI/ADR-RES, 27.6 µM (inactive); in the experiment on SK-OV-3 it was > 100 µM (inactive); in the experiment on HT-29 it was 21.4 µM (inactive); with OVCAR-3, > 43.9 µM (inactive); in the experiment with MOLT-4 it was 13.9 µM (inactive). The GI50 with CAKI-1 was 15.4 µM (inactive); in the experiment on U-251, > 100 µM (inactive); in the experiment with HL-60, 20.9 µM (inactive); with OVCAR-8, 52.8 µM (inactive); with SW-620, > 23.2 µM (inactive); with MDA-MB-231, > 100 µM (inactive). Also, the GI50 in the experiment on RPMI-8226 is 48 µM (inactive); in the experiment with UO-31, 27.9 µM (inactive); with Malme-3M, > 100 µM (inactive); in the experiment with NCI-H226, > 100 µM (inactive); with HCT-15 it was 25.9 µM; in the experiment on OVCAR-5, > 63.4 µM (inactive). Further, the GI50 in the experiment on SF-295 was 21.6 µM (inactive).

For the compound `O=C(OCC1OC2OC(c3ccccc3)(n3ccc4c([N+](=O)[O-])ccnc43)OC2C1OC(=O)c1ccccc1)c1ccccc1` (centres undefined), the GI50 in the experiment on HCT-116, with NCI/ADR-RES, with SK-OV-3, in the experiment on HT-29, with OVCAR-3 and in the experiment on MOLT-4 was > 100 µM (inactive) throughout. In addition, the GI50 in the experiment on CAKI-1, in the experiment with U-251, in the experiment on HL-60, in the experiment with OVCAR-8, in the experiment with SW-620 and in the experiment with MDA-MB-231 was > 100 µM (inactive) throughout. For the same compound, the GI50 is > 100 µM (inactive) in the experiment with RPMI-8226; > 100 µM (inactive) with UO-31; > 100 µM (inactive) with Malme-3M; > 100 µM (inactive) in the experiment on NCI-H226; over 100 µM with HCT-15; > 100 µM (inactive) in the experiment with OVCAR-5. Moreover, the GI50 with SF-295 is > 100 µM (inactive).

Turning to `CN(C)CCNc1ccc(C(=O)NCCCN(C)CCCNC(=O)c2ccc(NCCN(C)C)c3c(=O)c4ccccc4[nH]c23)c2[nH]c3ccccc3c(=O)c12`, the GI50 with HCT-116 was < 0.01 µM (active); with NCI/ADR-RES it was 5.08 µM (inactive); in the experiment with SK-OV-3, 0.109 µM (active); with HT-29, < 0.01 µM (active); in the experiment with OVCAR-3, 0.469 µM (active); with MOLT-4, < 0.01 µM (active). Also, the GI50 in the experiment with CAKI-1 was 5.6 µM (inactive); in the experiment with U-251 it was < 0.01 µM (active); in the experiment with HL-60, 0.155 µM (active); in the experiment on OVCAR-8, 0.0272 µM (active); in the experiment on SW-620 it was < 0.0113 µM (active); in the experiment on MDA-MB-231 it was 0.024 µM (active). The GI50 with RPMI-8226 was < 0.01 µM (active); in the experiment on UO-31, 1.27 µM (inactive); with Malme-3M, 0.0467 µM (active); in the experiment with NCI-H226, 0.0199 µM (active); in the experiment with HCT-15 it was 3.81 µM; in the experiment on OVCAR-5, 0.0458 µM (active). The GI50 in the experiment with SF-295 was 0.0328 µM (active).

On to `CCC1([N+](=O)[O-])CN(N=O)C1`, for which the GI50 in the experiment on HCT-116, in the experiment on NCI/ADR-RES, in the experiment on SK-OV-3, in the experiment on HT-29, with OVCAR-3 and in the experiment with MOLT-4 was > 100 µM (inactive) throughout. For the same compound, the GI50 in the experiment with CAKI-1, in the experiment on U-251, in the experiment with HL-60, in the experiment with OVCAR-8, with SW-620 and with MDA-MB-231 was > 100 µM (inactive) each time. Moreover, the GI50 was > 100 µM (inactive) with RPMI-8226; > 100 µM (inactive) in the experiment with UO-31; > 100 µM (inactive) with Malme-3M; > 100 µM (inactive) with NCI-H226; over 100 µM in the experiment with HCT-15; > 100 µM (inactive) with OVCAR-5. Besides, the GI50 with SF-295 was > 100 µM (inactive).

On to `c1cc2ccc3cc4ncccc4c4ccc(c1)c2c34`, for which the GI50 was 12 µM (inactive) in the experiment with HCT-116; 31.6 µM (inactive) in the experiment on NCI/ADR-RES; 37.2 µM (inactive) in the experiment on SK-OV-3; 23.2 µM (inactive) in the experiment with HT-29; 82.2 µM (inactive) with OVCAR-3; 8.59 µM (inactive) in the experiment on MOLT-4. Further, the GI50 in the experiment with CAKI-1 is 18.5 µM (inactive); in the experiment on U-251, 17.9 µM (inactive); in the experiment with HL-60 it was 33.2 µM (inactive); in the experiment on OVCAR-8, 6.82 µM (inactive); with SW-620 it was 17.5 µM (inactive); in the experiment with MDA-MB-231 it was 20.8 µM (inactive). In addition, the GI50 with RPMI-8226 was 10.1 µM (inactive); in the experiment on UO-31, 5.43 µM (inactive); with Malme-3M, 70.8 µM (inactive); in the experiment on NCI-H226, 17.5 µM (inactive); with HCT-15, 7.73 µM; in the experiment with OVCAR-5, 84.7 µM (inactive). For the same compound, the GI50 in the experiment on SF-295 is 17.1 µM (inactive).

As for `Cc1ccc(SCC(OCn2cnc3c(N)ncnc32)[C@H](C)F)cc1` (some centres undefined), the GI50 with HCT-116 was > 100 µM (inactive); in the experiment with NCI/ADR-RES, 73.1 µM (inactive); with SK-OV-3 it was > 100 µM (inactive); in the experiment on HT-29, > 100 µM (inactive); with OVCAR-3 it was > 100 µM (inactive); in the experiment with MOLT-4, > 100 µM (inactive). For the same compound, the GI50 with CAKI-1, in the experiment with U-251, in the experiment on HL-60, with OVCAR-8, in the experiment with SW-620 and in the experiment with MDA-MB-231 was > 100 µM (inactive) each time. The GI50 in the experiment on RPMI-8226 is > 100 µM (inactive); with UO-31 it was > 100 µM (inactive); with Malme-3M, > 100 µM (inactive); in the experiment on NCI-H226, > 100 µM (inactive); in the experiment on HCT-15, over 100 µM; in the experiment on OVCAR-5, > 100 µM (inactive). For the same compound, the GI50 in the experiment with SF-295 was > 100 µM (inactive).

As to `NC(=O)c1cccc(/N=c2\oc3ccc(Br)cc3cc2-c2nc3ccccc3[nH]2)c1`, the GI50 was 16.4 µM (inactive) in the experiment with HCT-116; 12.1 µM (inactive) in the experiment with NCI/ADR-RES; 16.4 µM (inactive) in the experiment on SK-OV-3; 15.8 µM (inactive) in the experiment with HT-29; 16.2 µM (inactive) in the experiment on OVCAR-3; 12.5 µM (inactive) with MOLT-4. For the same compound, the GI50 was 18 µM (inactive) in the experiment on CAKI-1; 13.2 µM (inactive) in the experiment with U-251; 18.1 µM (inactive) in the experiment with HL-60; 7.62 µM (inactive) with OVCAR-8; 15.3 µM (inactive) in the experiment on SW-620; 7.55 µM (inactive) in the experiment with MDA-MB-231. The GI50 in the experiment on RPMI-8226 was 5.87 µM (inactive); in the experiment on UO-31, 7.76 µM (inactive); in the experiment on Malme-3M it was 22.5 µM (inactive); with NCI-H226, 0.075 µM (active); in the experiment with HCT-15, 12.7 µM; in the experiment with OVCAR-5, 16.3 µM (inactive). Further, the GI50 in the experiment with SF-295 was 15.8 µM (inactive).

As for `O=C1CC(NCc2ccccc2)c2c(Cl)sc(Cl)c21` (centres undefined), the GI50 is 15.1 µM (inactive) with HCT-116; 28.1 µM (inactive) with NCI/ADR-RES; > 74 µM (inactive) with SK-OV-3; 28.2 µM (inactive) with HT-29; 20 µM (inactive) in the experiment with OVCAR-3; 4.23 µM (inactive) in the experiment with MOLT-4. Besides, the GI50 is 23.2 µM (inactive) with CAKI-1; 18.3 µM (inactive) with U-251; 17.2 µM (inactive) in the experiment on HL-60; 18 µM (inactive) in the experiment with OVCAR-8; 17.7 µM (inactive) in the experiment with SW-620; 27.1 µM (inactive) in the experiment with MDA-MB-231. The GI50 was 2.26 µM (inactive) with RPMI-8226; 31.4 µM (inactive) in the experiment on UO-31; 18.5 µM (inactive) with Malme-3M; 25.9 µM (inactive) with NCI-H226; 20.1 µM in the experiment on HCT-15; 39.8 µM (inactive) with OVCAR-5. Also, the GI50 in the experiment on SF-295 was 38.7 µM (inactive).

As for `Cc1nc(O)nc2nc3ccc(Cl)cc3c(N(CCO)CCO)c12`, the GI50 with HCT-116, with NCI/ADR-RES, in the experiment on SK-OV-3, with HT-29, in the experiment with OVCAR-3 and with MOLT-4 was > 100 µM (inactive) in each case. Besides, the GI50 was 96.2 µM (inactive) in the experiment on CAKI-1; > 100 µM (inactive) in the experiment with U-251; > 100 µM (inactive) in the experiment with HL-60; > 100 µM (inactive) in the experiment on OVCAR-8; > 100 µM (inactive) in the experiment with SW-620; 39 µM (inactive) in the experiment on MDA-MB-231. Further, the GI50 in the experiment with RPMI-8226 was 52.6 µM (inactive); in the experiment on UO-31 it was 73.6 µM (inactive); in the experiment on Malme-3M, > 100 µM (inactive); in the experiment with NCI-H226, 26.8 µM (inactive); in the experiment on HCT-15, 94.4 µM; in the experiment on OVCAR-5, > 100 µM (inactive). Further, in the experiment with SF-295, the GI50 is > 100 µM (inactive).

In the case of `C/C(=N\Nc1nc2ccccc2o1)c1cc2ccccc2cn1`, the GI50 is < 0.01 µM (active) with HCT-116; < 0.01 µM (active) with NCI/ADR-RES; 0.0474 µM (active) in the experiment with SK-OV-3; < 0.01 µM (active) in the experiment with HT-29; < 0.01 µM (active) with OVCAR-3; < 0.01 µM (active) in the experiment on MOLT-4. In addition, the GI50 is < 0.01 µM (active) in the experiment with CAKI-1; < 0.0215 µM (active) in the experiment on U-251; < 0.01 µM (active) in the experiment with HL-60; < 0.01 µM (active) in the experiment on OVCAR-8; < 0.01 µM (active) in the experiment with SW-620; < 0.01 µM (active) in the experiment with MDA-MB-231. The GI50 in the experiment on RPMI-8226 is < 0.0235 µM (active); in the experiment with UO-31, < 0.0147 µM (active); in the experiment on Malme-3M it was < 0.01 µM (active); in the experiment with NCI-H226, < 0.0208 µM (active); in the experiment on HCT-15, under 0.01 µM; in the experiment with OVCAR-5, 0.225 µM (active). The GI50 with SF-295 is 0.174 µM (active).
